Measurements from patent publication US20120004228A1, “Bis Aromatic Compounds for Use as LTC4 Synthase Inhibitors” (BIOLIPOX AB, priority 2009, published 2012).
pIC50: −log10 of the molar value.

Key:
[1] = molecular target: T1, Recombinant human LTC4 synthase (Homo sapiens, UniProt Q16873); experiment: In vitro LTC4 synthase assay (LTA4 to LTC4, HTRF detection); type: biochemical
T1 construct: made in house; host or cells: Pichia pastoris ('Piccia pastoralis' [sic])
T1 sequence (Q16873 1-150): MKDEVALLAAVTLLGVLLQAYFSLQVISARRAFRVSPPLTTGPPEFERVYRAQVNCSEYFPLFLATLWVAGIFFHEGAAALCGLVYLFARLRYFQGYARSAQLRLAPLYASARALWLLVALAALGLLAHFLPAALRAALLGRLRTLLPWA

[2] = molecular target: T1, Recombinant human LTC4 synthase; experiment: as above; type: biochemical; remark: listed apart in the source

SMILES	inhibition at 1 µM [1] [%]	pIC50 [2]	inhibition at 10 µM ([2]; 5 min, total concentration of title compound in the assay 10 μM) [%]
CN(c1ccc(Cl)cc1)c1ccc(C(=O)c2cc(NC(=O)c3ccc(Cl)cc3Cl)cc(C(=O)O)c2)cc1 [Example 1:1, 3-{4-[(4-Chlorophenyl)(methyl)amino]benzoyl}-5-(2,4-dichlorobenzamido)benzoic acid]	95	6.78	
CN(c1ccc(Cl)cc1)c1ccc(C(=O)c2cc(C(=O)O)cc(N(C)c3ccc4c(c3)OCO4)c2)nc1 [9:30, 3-{5-[(4-Chlorophenyl)(methyl)amino]picolinoyl}-5-[(3,4-methylenedioxy-phenyl)(methyl)amino]benzoic acid]		6.71	
CCCCCCC(=O)Nc1ccc(C(=O)c2ccc(Nc3ccc(Cl)cc3)cc2C(=O)O)cc1 [Example 4:1, 5-(4-Chlorophenylamino)-2-(4-heptylamidobenzoyl)benzoic acid]		6.19	98
CN(c1ccc(Cl)cc1)c1ccc(C(=O)c2cc(Oc3cccc(OC(F)(F)F)c3)cc(C(=O)O)c2)cc1 [8:10, 3-{4-[(4-Chlorophenyl)(methyl)amino]benzoyl}-5-[3-(trifluoromethoxy)phenoxy]-benzoic acid]		6.77	
Cc1ccccc1Oc1cc(C(=O)O)cc(C(=O)c2ccc(N(C)c3ccc(Cl)cc3)cc2)c1 [8:17, 3-{4-[(4-Chlorophenyl)(methyl)amino]benzoyl}-5-(o-tolyloxy)benzoic acid]		6.70	
CN(c1ccc(Cl)cc1)c1ccc(C(=O)c2cc(C(=O)O)cc(N3CCOCC3)c2)nc1 [9:36, 3-{5-[(4-Chlorophenyl)(methyl)amino]picolinoyl}-5-(4-morpholinyl)benzoic acid]		6.00	
